Data taken from US6930098B2, “Use of polysulphated cyclodextrins for treating osteoarthritis” (Universiteit Gent, priority 2000, dated 2005).

System: Human articular chondrocytes
Assay: Synthesis of extracellular aggrecans by chondrocytes cultured in agarose gel (35S incorporation)
Format: cell-based
Conditions: 2.5 μg/ml, 48 hours with Na2 35SO4 after culturing for two weeks; for Amount of 35S-aggrecans associated with the cells: cell-associated fraction; for Amount of 35S-aggrecans in the medium: incubation medium fraction; for Amount of 35S-aggrecans in the interterritorial matrix: interterritorial matrix fraction
Experimental: Evaluation of the in vitro effects of polysulphated cyclodextrins on the synthesis of extracellular aggrecans by chondrocytes.
Human articular chondrocytes are isolated according to the methods described by W. T. Green Jr (Clin. Orthop., 1971, 75, 248-260) and K. E. Kuettner et al. (J. Cell. Biol., 1982, 93, 743-750).
The chondrocytes are then cultured in agarose gel, in accordance with the method described by P. D. Benya et al. (Cell., 1982, 30, 215-224) and modified according to M. Cornelissen et al. (J. Tiss. Cult. Meth., 1993, 15, 139-146) and according to G. Verbruggen et al. (Clin. Exp. Rheumatol, 1990, 8, 371-378).
Synthesis of aggrecans: This is measured by determining the incorporation of 35S, supplied by a radioactive precursor, sodium sulphate Na2^35SO4. After culturing for two weeks, 10 μCi/ml of the radio-labelled precursor are introduced into the culture medium for 48 hours, as well as the compounds under test (polysulphated α-, β- and γ-cyclodextrins) or the reference compounds (chondroitin sulphate and polysulphate) at an end concentration of 2.5 μg/ml.
The newly synthesised ^35S-aggrecans accumulate partly in the intercellular agarose medium or are released into the incubation medium.
At the end of the incubation period, the agarose gel is broken up mechanically and is then digested with 3 ml of a 50 U/ml solution of […] in a 0.067M phosphate buffer at pH 6.0, in the presence of proteinase inhibitors.
The suspension thereby obtained is centrifuged; the supernatant, which comprises the ^35S-aggrecans of the interterritorial matrix, and the incubation medium, comprising the metabolites of ^35S-aggrecans released into the extracellular matrix, are combined for subsequent chromatography.
The centrifuged pellet, comprising the chondrocytes and the ^35S-aggrecans associated therewith, is treated for 48 hours with 1 ml of a 4.0M solution of guanidinium chloride in a 0.05M acetate buffer at pH 5.8 comprising the proteinase inhibitors. The objective of this operation is to extract the ^35S-aggrecans associated with the cells. The solution obtained is centrifuged to separate the cells from the supernatant, which is separated off for subsequent chromatography. The chromatography operations on the various fractions obtained are carried out on Sephadex G25 gel in a pH 6.8 phosphate buffer containing 0.01M Na2SO4, so as to separate the ^35S-aggrecans from the free Na2^35SO4.
The radioactivity of each of the macromolecular eluates obtained is measured and related to the number of chondrocytes contained in the initial culture and is expressed in terms of pg of SO4 incorporated into the aggrecans, per million chondrocytes and per hour.

| Substance | Amount of 35S-aggrecans associated with the cells | Amount of 35S-aggrecans in the medium | Amount of 35S-aggrecans in the interterritorial matrix |
| --- | --- | --- | --- |
| chondroitin sulphate [CS, reference compound] | 1373 pg of SO4 incorporated into the aggrecans, per million chondrocytes and per hour | 2187 pg of SO4 incorporated into the aggrecans, per million chondrocytes and per hour | 6589 pg of SO4 incorporated into the aggrecans, per million chondrocytes and per hour |
| chondroitin polysulphate [CPS, reference compound] | 1392 pg of SO4 incorporated into the aggrecans, per million chondrocytes and per hour | 2519 pg of SO4 incorporated into the aggrecans, per million chondrocytes and per hour | 6446 pg of SO4 incorporated into the aggrecans, per million chondrocytes and per hour |
| polysulphated α-cyclodextrin [α CD] | 1315 pg of SO4 incorporated into the aggrecans, per million chondrocytes and per hour | 1589 pg of SO4 incorporated into the aggrecans, per million chondrocytes and per hour | 8036 pg of SO4 incorporated into the aggrecans, per million chondrocytes and per hour |
| polysulphate β-cyclodextrin [β CD] | 2262 pg of SO4 incorporated into the aggrecans, per million chondrocytes and per hour | 1658 pg of SO4 incorporated into the aggrecans, per million chondrocytes and per hour | 6232 pg of SO4 incorporated into the aggrecans, per million chondrocytes and per hour |
| polysulphated γ-cyclodextrin [γ CD] | 2907 pg of SO4 incorporated into the aggrecans, per million chondrocytes and per hour | 3873 pg of SO4 incorporated into the aggrecans, per million chondrocytes and per hour | 8232 pg of SO4 incorporated into the aggrecans, per million chondrocytes and per hour |
